Values quoted from earlier work as cited in patent US20120172333A1, “PYRROLO-PYRIDINE DERIVATIVES AS ACTIVATORS OF AMPK” (GLAXOSMITHKLINE LLC, priority 2009, published 2012).

Tested on: ob/ob and db/db mice
Settings: 8 day administration

In the case of `NC(=O)c1ncn([C@@H]2O[C@H](CO)[C@@H](O)[C@H]2O)c1N` [AICAR], the “reduction of blood glucose” value is given as 35%.
